# Reference: publication PMC9223397 (International Journal of Molecular Sciences, 2022)
# Like-named read-outs stand apart in the source and are kept apart here.
# Assays:
# [1] = target: T1, human Sigma-2 receptor (Sig-2R) (Homo sapiens, UniProt Q5BJF2); assay: Human Sig-2R radioligand assay; format: binding; details: [3H]-DTG, transfected HEK-293 Sig-1R knockout membranes
# T1 construct: expressed in transfected cells; host or cells: HEK-293 Sig-1R knockout (membranes)
# Protocol: The binding properties of the compounds to the human Sig-2R were similarly studied in transfected HEK-293 Sig-1R knockout membranes using [^3H]-1,3-di-o-tolylguanidine (DTG) (NET-986, PerkinElmer; Boston, USA) as the radioligand. The assay was carried out with 15 μg of membrane suspension, [^3H]-1,3-di-o-tolylguanidine (DTG) (10 nM, 100 μL), in either the absence or presence of either buffer or 10 μM haloperidol for total (TB) and nonspecific (NSB) binding, respectively, or the corresponding compound concentration. Binding buffer contained Tris-HCl (50 mM, pH 7.4). Plates were incubated at 25 °C for 120 min. After incubation, the reaction mix was transferred to MultiScreen HTS, FC plates (Merck Millipore) presoaked in 0.5% polyethyleneimine, and filtered. Following that, plates were washed with ice-cold Tris-HCl (10 mM, pH 8). Filters were dried and counted, and data were processed as above.
# Sig-1R/BiP interaction = assay: BiP/Sig-1R association assay in CHO cells; format: cell-based; details: for Effect on association between Sig-1R and BiP, compound alone: 30 µM; for Effect on Sig-1R/BiP interaction (concentration-response): CHO cells, 37 °C 30 min, co-IP/ELISA; for Functional profile for Sig-1R: based on BiP/Sig-1R association assay
# Protocol: The interaction between Sig-1R and the chaperone BiP was used to identify the functional nature (agonistic or antagonistic) of compounds [38]. The assay was conducted by Amylgen according to their standard assay protocol (https://www.amylgen.fr/ (accessed on 15 May 2022)). Each assay condition consisted of six determinations. In brief, CHO cells were treated with compounds at 37 °C for 30 min and lysed. CHO cell lysates were immunoprecipitated with Sig-1R antibody, and coimmunoprecipitated BiP was detected by ELISA assay. In each experiment, untreated control cell lysates were used to assess the maximal level of Sig1R-BiP interaction and represented 100% of Sig1R-BiP association. Cells treated with compounds at the corresponding concentrations were equally processed, and the level of Sig1R-BiP association in those conditions was referred to as the control condition. In this experimental setting, Sig1R agonists were able to reduce the Sig1R-BiP interaction, while antagonists were not.
# [2] = system: SMI-32-positive MNs in spinal cord organotypic cultures; assay: Spinal cord organotypic cultures (SCOC) under chronic excitotoxicity (THA); format: cell-based, Sprague–Dawley rats; details: THA 100 µM, 28 DIV; tested at 0.03, 0.3, 3, 30 µM
# Protocol: SCOCs from lumbar sections of 8-day-old Sprague–Dawley rats were prepared as previously described [39]. Briefly, the spinal cord was collected and cut into 350 μm thick transverse sections with a McIlwain Tissue Chopper. Four lumbar sections were transferred onto Millicell-CM nets (0.4 μm, PICM03050, Millipore) in medium (50% (v/v) minimal essential medium (MEM, M5775, Sigma), 2 mM glutamine, 25 mM HEPES, 25% (v/v) Hank’s Balanced Salt Solution (HBSS^−/−;14175, Gibco; UK) supplemented with 25.6 mg/mL glucose, and 25% (v/v) heat-inactivated horse serum (26050-088, Gibco; New Zealand), pH = 7.2). Cultures were maintained at 37 °C in a 5% CO2 humidified cabin and left to stabilize. After 7 days in vitro (DIV), DL-threo-β-hydroxyaspartic acid (THA; 100 μM: H2775, Sigma Aldrich, St. Louis, MI, USA) was added to induce chronic excitotoxicity [28]. […] In vitro experiments were performed in three independent cultures, with at least 12 different SCOCs for each experimental condition.
# Slices were maintained for 28 DIV and then fixed with 4% PFA. […] MN survival was assessed by counting all SMI-32-positive neurons in each spinal cord using the Cell Counter plugin of ImageJ software.
# [3] = Plasma levels, spinal nerve injury (rhizotomy) model; format: in vivo, female mouse; details: ip
# Protocol: (§1) The compounds were dissolved in 0.5% hydroxypropyl-methylcellulose (HPMC; H7509, Sigma-Aldrich) in distilled water and were administered by intraperitoneal (i.p.) route twice daily (bid) in a volume of 10 mL/kg. Administrations were given from 30 min after rhizotomy surgery until 42 days post-injury (dpi), the end of the study; in the SOD1^G93A study, treatments were given from 8 to 16 weeks of age (see Figure 6).
# Plasma levels were determined in the two in vivo models evaluated to be able to associate the pharmacological activity with the levels present in plasma. […] In the SOD1^G93A model, the plasma levels were evaluated at 16 weeks of age (after 8 weeks of administration) and 15 min after compound administration (5 mg/kg i.p.). Plasma samples were assayed by ultraperformance liquid chromatography−triple quadrupole mass spectrometry (UPLC-MS/MS) after plasma protein precipitation. Results are expressed as mean ± standard deviation (n = 8).
# [4] = system: microglia and astrocytes in ventral horn after rhizotomy; assay: Glial reactivity after L4-L5 rhizotomy (Iba1, GFAP immunolabeling); format: in vivo, female mice (B6SJL); details: 5 mg/kg bid i.p., 42 dpi; for GFAP integrated density ± SEM (astroglial reactivity): untreated 19 × 10^4; for Iba1 integrated density ± SEM (microglial reactivity): untreated 26 × 10^4
# Protocol: Surgeries were performed on three-month-old mice under anesthesia with ketamine-xylazine (100–10 mg/kg i.p.) as previously described. Briefly, the L4-L5 spinal roots were exposed by a small laminectomy on the right side. Afterwards, roots were cut at the exit from the intervertebral foramina, and the root stumps were separated. Mice were cared for until recovery in a warm environment. Analgesia was provided with buprenorphine (0.1 mg/kg) for the next 48 h post-surgery.
# as §1
# For glial cells immunofluorescence, other lumbar spinal cord sections were blocked with 10% normal donkey serum and incubated overnight with primary antibodies rabbit anti-Iba1 (1:500; 019–19741, Wako) and rat anti-GFAP (1:500; 13-0300, Invitrogen) to label microglia and astroglia, respectively. After several washes, sections were incubated with secondary antibodies Alexa Fluor 488-donkey anti-rat (1:500; A-21208, Invitrogen) or Alexa Fluor 594 donkey anti-rabbit (1:500; A21207, Invitrogen). Finally, sides were mounted with Fluoromount-G. To quantify glial cell reactivity, images of the ventral horn were acquired with an epifluorescence microscope (Nikon Eclipse Ni, Japan) using the same conditions for each analyzed marker. After defining a threshold for background correction, the integrated density of GFAP or Iba1 labeling was measured using ImageJ software.
# [5] = Tolerability of chronic administration in rhizotomy mice; format: in vivo; details: twice daily i.p. for 6 weeks, 0.5 and 5 mg/kg
# Protocol: as §1
# SOD1^G93A mice = assay: Motor nerve conduction tests in SOD1G93A mice; format: in vivo, SOD1^G93A male mice
# Protocol: as §1
# Motor nerve conduction tests were performed before the surgery to obtain baseline values and at the end of the follow-up in the rhizotomy model, whereas the SOD1^G93A mice were evaluated at 8 weeks (prior to starting drug administration) and then every 2–3 weeks until the end point at 16 weeks of age (Figure 6). The sciatic nerve was stimulated by means of single pulses of 50 µs duration delivered from a Grass S88 stimulator through needle electrodes placed at the sciatic notch. The CMAP was recorded from TA, GM, and plantar interossei muscles with microneedle electrodes, with the active electrode being placed in the muscle and the reference at the fourth toe. […] The mice were anesthetized with pentobarbital (50 mg/kg i.p.), and their body temperature was maintained by means of a thermostatic warming pad.
# [6] = 5 mg/kg i.p. from 8 weeks of age, early (11 weeks) and mid (13 weeks) stages
# T1 sequence (Q5BJF2 whole entry): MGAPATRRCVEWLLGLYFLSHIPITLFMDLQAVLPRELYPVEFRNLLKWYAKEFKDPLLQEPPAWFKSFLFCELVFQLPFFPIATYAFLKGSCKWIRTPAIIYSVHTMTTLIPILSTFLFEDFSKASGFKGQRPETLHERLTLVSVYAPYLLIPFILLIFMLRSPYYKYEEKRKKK
Compound,IC50 [1] [µM],"Effect on association between Sig-1R and BiP, compound alone (Sig-1R/BiP interaction)",Effect on Sig-1R/BiP interaction (concentration-response) (Sig-1R/BiP interaction),Functional profile for Sig-1R (Sig-1R/BiP interaction),"Reversion of the effect of PRE-084 on Sig-1R/BiP association (Sig-1R/BiP interaction; compound 30 µM, PRE-084 10 µM)",Number of SMI-32-positive MNs vs THA condition [2],"concentration at 15 min ([3]; female, mouse, in vivo, 0.5 mg/kg) [ng/mL]","concentration at 15 min ([3]; female, mouse, in vivo, 5 mg/kg) [ng/mL]",GFAP integrated density ± SEM (astroglial reactivity) [4],Iba1 integrated density ± SEM (microglial reactivity) [4],"Toxicity of chronic administration (behavior, body weight) [5]",CMAP amplitude of TA and plantar muscles vs vehicle (SOD1^G93A mice; [6]),"concentration at 15 min ([3]; plasma, rhizotomy female mouse, 0.5 mg/kg i.p. bid, day 42, read-out: Plasma Concentration 15 min Post-Administration, Mean) [ng/mL]","concentration at 15 min ([3]; plasma, rhizotomy female mouse, 5 mg/kg i.p. bid, day 42, read-out: Plasma Concentration 15 min Post-Administration, Mean) [ng/mL]","CMAP amplitude of TA and plantar muscles vs vehicle (SOD1^G93A mice; 5 mg/kg i.p., at 16 weeks of age)"
CCN1CC2(CCN(Cc3ccc(C#N)c(F)c3)CC2)O[C@@H](C)C1=O [EST79376],> 10,had no effect on its own,did not produce any change in the interaction between the two proteins,antagonist,able to revert the effect of PRE-084,significantly preserved MNs,21,592,15 × 10^4 ± 2.7 × 10^4,25 × 10^4 ± 4 × 10^4,did not cause overt toxicity in the animals,only showed significant preservation of the CMAP amplitude in the plantar muscle at 13 weeks of age,,,
C[C@@H]1OC2(CCN(Cc3ccc(F)cc3)CC2)CN(C)C1=O [EST79232],> 10,able to reduce the association between Sig-1R and BiP,concentration-dependent dissociation of Sig-1R from BiP,agonist,,significantly more SMI-32-positive neurons at three concentrations tested,,,4 × 10^4 ± 0.4 × 10^4,13 × 10^4 ± 2 × 10^4,did not cause overt toxicity in the animals,significantly prevented the decline in amplitude of the CMAP of TA and plantar muscles,20,265,effect was reduced to levels found in the vehicle group
